Assay results reported in PubChem BioAssay AID330 (DTP/NCI, 2004).
Several values for one entry are separate records, joined by “and”; a condition that tells them apart may be missing. Identical values can stand only once. Toxic doses and inconclusive results are not listed.

Test system: P388 leukemia ip, CD2F1 mice, survival T/C
Assay: NCI In Vivo Anticancer Drug Screen. Data for tumor model P388 Leukemia (intraperitoneal) in CD2F1 (CDF1) mice
Details: endpoint: median survival time, higher = longer survival
Method in brief: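 Mice carrying the transplanted tumor received test compound or vehicle. Survival was recorded in each group, and the value is the treated-group measurement divided by that of the vehicle-treated control group.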

[1] = dose: 100.0 mg/kg/injection, schedule: Q01DX001 (ip), vehicle: Klucel (hydroxypropylcellulose) (HPC)
[2] = dose: 200.0 mg/kg/injection, schedule: Q01DX001 (ip), vehicle: Klucel (hydroxypropylcellulose) (HPC)
[3] = dose: 400.0 mg/kg/injection, schedule: Q01DX001 (ip), vehicle: Klucel (hydroxypropylcellulose) (HPC)
[4] = dose: 50.0 mg/kg/injection, schedule: Q01DX009 (ip), vehicle: saline with Tween-80
[5] = dose: 100.0 mg/kg/injection, schedule: Q01DX009 (ip), vehicle: saline with Tween-80
[6] = dose: 200.0 mg/kg/injection, schedule: Q01DX009 (ip), vehicle: saline with Tween-80
[7] = dose: 200.0 mg/kg/injection, schedule: Q04DX003 (ip), vehicle: saline with Tween-80
[8] = dose: 50.0 mg/kg/injection, schedule: Q01DX009 (ip), vehicle: Klucel (hydroxypropylcellulose) (HPC)
[9] = dose: 100.0 mg/kg/injection, schedule: Q01DX009 (ip), vehicle: Klucel (hydroxypropylcellulose) (HPC)
[10] = dose: 100.0 mg/kg/injection, schedule: Q01DX001 (ip), vehicle: saline with Tween-80
[11] = dose: 200.0 mg/kg/injection, schedule: Q01DX001 (ip), vehicle: saline with Tween-80
[12] = dose: 400.0 mg/kg/injection, schedule: Q01DX001 (ip), vehicle: saline with Tween-80
[13] = dose: 60.0 mg/kg/injection, schedule: Q01DX005 (ip), vehicle: saline with Tween-80
[14] = dose: 120.0 mg/kg/injection, schedule: Q01DX005 (ip), vehicle: saline with Tween-80
[15] = dose: 240.0 mg/kg/injection, schedule: Q01DX005 (ip), vehicle: saline with Tween-80
[16] = dose: 12.5 mg/kg/injection, schedule: Q01DX009 (ip), vehicle: Klucel (hydroxypropylcellulose) (HPC)
[17] = dose: 25.0 mg/kg/injection, schedule: Q01DX009 (ip), vehicle: Klucel (hydroxypropylcellulose) (HPC)
[18] = dose: 50.0 mg/kg/injection, schedule: Q01DX009 (ip), vehicle: saline
[19] = dose: 100.0 mg/kg/injection, schedule: Q01DX009 (ip), vehicle: saline
[20] = dose: 200.0 mg/kg/injection, schedule: Q01DX009 (ip), vehicle: saline
[21] = dose: 50.0 mg/kg/injection, schedule: Q01DX005 (ip), vehicle: saline with Tween-80
[22] = dose: 200.0 mg/kg/injection, schedule: Q01DX005 (ip), vehicle: saline with Tween-80

SMILES: COc1ccc(C(O)(C2CC2)C2CC2)cc1
- T/C [1]: 98 % of control
- T/C [2]: 94 % of control
- T/C [3]: 98 % of control

SMILES: O=C(NC(=NC(=Nc1ccccc1)c1ccccc1)c1ccccc1)c1ccccc1
- T/C [4]: 99 % of control
- T/C [5]: 102 % of control
- T/C [6]: 99 % of control

SMILES: CC1C(=O)OC2CCN3CC4OC4(COC(=O)C(C)(O)C1(C)O)C23 (configuration not stated)
- T/C (dose: 132.0 mg/kg/injection, schedule: Q04DX003 (ip), vehicle: saline with Tween-80): 90 % of control
- T/C [7]: 110 % of control
- T/C (dose: 300.0 mg/kg/injection, schedule: Q04DX003 (ip), vehicle: saline with Tween-80): 100 % of control

SMILES: COc1cc2c(cc1O)C(CSC)Cc1cc(OC)c(OC)cc1N(C)CC2 (configuration not stated)
- T/C [4]: 104 % of control
- T/C [5]: 101 % of control
- T/C [6]: 109 % of control

SMILES: CCOc1ccccc1/C=C1\CCc2ccccc2C1=O
- T/C [8]: 100 % of control
- T/C [9]: 100 % of control
- T/C (dose: 200.0 mg/kg/injection, schedule: Q01DX009 (ip), vehicle: Klucel (hydroxypropylcellulose) (HPC)): 102 % of control

SMILES: CCCCCCCCCCCCOP(=O)(N1CC1(C)C)N1CC1(C)C (configuration not stated)
- T/C (dose: 2.0 mg/kg/injection, schedule: Q01DX009 (ip), vehicle: saline with Tween-80): 108 % of control and 113 % of control
- T/C (dose: 4.0 mg/kg/injection, schedule: Q01DX009 (ip), vehicle: saline with Tween-80): 103 % of control and 108 % of control
- T/C (dose: 8.0 mg/kg/injection, schedule: Q01DX009 (ip), vehicle: saline with Tween-80): 114 % of control and 117 % of control
- T/C (dose: 16.0 mg/kg/injection, schedule: Q01DX009 (ip), vehicle: saline with Tween-80): 102 % of control and 117 % of control

SMILES: c1ccc(C2OCC3(CO2)COC(c2ccccc2)OC3)cc1 (configuration not stated)
- T/C [4]: 90 % of control
- T/C [5]: 100 % of control
- T/C [6]: 90 % of control

SMILES: C[N+](C)=c1ccc2nc3c(cc(Nc4ccccc4)c4ccccc43)oc-2c1
- T/C (dose: 60.0 mg/kg/injection, schedule: Q01DX005 (ip), vehicle: Klucel (hydroxypropylcellulose) (HPC)): 88 % of control
- T/C (dose: 120.0 mg/kg/injection, schedule: Q01DX005 (ip), vehicle: Klucel (hydroxypropylcellulose) (HPC)): 91 % of control
- T/C (dose: 240.0 mg/kg/injection, schedule: Q01DX005 (ip), vehicle: Klucel (hydroxypropylcellulose) (HPC)): 103 % of control

SMILES: CCC(c1ccc(OC)cc1)C(NCC(=O)NNC(=S)NCc1ccccc1)c1ccc(OC)cc1 (configuration not stated)
- T/C [10]: 92 % of control
- T/C [11]: 99 % of control
- T/C [12]: 99 % of control

SMILES: OC(c1cc2c(Cl)cc(Cl)cc2c2cc(C(F)(F)F)ccc12)C1CCCCN1 (configuration not stated)
- T/C (dose: 6.25 mg/kg/injection, schedule: Q01DX009 (ip), vehicle: saline with Tween-80): 101 % of control
- T/C (dose: 12.5 mg/kg/injection, schedule: Q01DX009 (ip), vehicle: saline with Tween-80): 100 % of control
- T/C (dose: 25.0 mg/kg/injection, schedule: Q01DX009 (ip), vehicle: saline with Tween-80): 100 % of control

SMILES: CC(C)C12CN1C2(c1ccccc1)c1ccccc1 (configuration not stated)
- T/C [13]: 100 % of control
- T/C [14]: 106 % of control
- T/C [15]: 107 % of control

SMILES: CCOCC(=O)NC1Cc2cc(OC)c(OC)cc2C1O (configuration not stated)
- T/C [13]: 100 % of control
- T/C [14]: 101 % of control
- T/C [15]: 100 % of control

SMILES: NC(=O)NC(=O)C(Cc1ccc(Cl)cc1)c1ccccc1 (configuration not stated)
- T/C (dose: 30.0 mg/kg/injection, schedule: Q01DX005 (ip), vehicle: saline with Tween-80): 96 % of control and 97 % of control
- T/C [13]: 89 % of control and 94 % of control
- T/C [14]: 87 % of control and 89 % of control
- T/C [15]: 88 % of control

SMILES: CN1C(=O)/C(=[N+](/[O-])c2ccccc2-c2ccccc2)c2ccccc21
- T/C (dose: 100.0 mg/kg/injection, schedule: Q04DX002 (ip), vehicle: saline with Tween-80): 99 % of control
- T/C (dose: 200.0 mg/kg/injection, schedule: Q04DX002 (ip), vehicle: saline with Tween-80): 100 % of control
- T/C (dose: 400.0 mg/kg/injection, schedule: Q04DX002 (ip), vehicle: saline with Tween-80): 97 % of control

SMILES: CNS(=O)(=O)c1c([N+](=O)[O-])ncn1C
- T/C [16]: 109 % of control
- T/C [17]: 109 % of control and 115 % of control
- T/C [8]: 113 % of control
- T/C [9]: 123 % of control

SMILES: CCOC(=O)Nc1ccc2nc(-c3cscn3)[nH]c2c1
- T/C [18]: 101 % of control
- T/C [19]: 112 % of control
- T/C [20]: 115 % of control

SMILES: O=C(CNC1=NCCN1)Nc1ccc(NC(=O)c2ccc(C(=O)Nc3ccc(NC(=O)CNC4=NCCN4)cc3)cc2)cc1
- T/C [21]: 118 % of control and 124 % of control
- T/C [22]: 189 % of control
- T/C (dose: 400.0 mg/kg/injection, schedule: Q01DX005 (ip), vehicle: saline with Tween-80): 96 % of control

SMILES: O=C1CCc2cc(O)ccc21
- T/C (dose: 25.0 mg/kg/injection, schedule: Q01DX009 (ip), vehicle: saline): 108 % of control
- T/C [18]: 94 % of control
- T/C [19]: 98 % of control
- T/C [20]: 100 % of control

SMILES: O=C(O)C1C(C(=O)O)C2(Cl)C(Cl)=C(Cl)C1(Cl)C2(Cl)Cl.[Cu+2] (configuration not stated)
- T/C (dose: 50.0 mg/kg/injection, schedule: Q01DX001 (ip), vehicle: saline sonified): 104 % of control
- T/C (dose: 100.0 mg/kg/injection, schedule: Q01DX001 (ip), vehicle: saline sonified): 118 % of control

SMILES: O=C(O)c1cc(I)cc(I)c1
- T/C (dose: 37.5 mg/kg/injection, schedule: Q01DX009 (ip), vehicle: saline with Tween-80): 99 % of control
- T/C (dose: 75.0 mg/kg/injection, schedule: Q01DX009 (ip), vehicle: saline with Tween-80): 104 % of control
- T/C (dose: 100.0 mg/kg/injection, schedule: Q04DX003 (ip), vehicle: saline with Tween-80): 98 % of control
- T/C (dose: 150.0 mg/kg/injection, schedule: Q01DX009 (ip), vehicle: saline with Tween-80): 95 % of control
- T/C [7]: 96 % of control
- T/C (dose: 400.0 mg/kg/injection, schedule: Q04DX003 (ip), vehicle: saline with Tween-80): 96 % of control

SMILES: COc1ccccc1NC(CCN1CCCCC1)=NC(C)(C)C
- T/C [4]: 111 % of control
- T/C [5]: 106 % of control
- T/C [6]: 104 % of control

SMILES: CC(C)C(NC(=O)[C@@H](C(C)C)N1C(=O)c2ccccc2C1=O)C(=O)O (some centres not stated)
- T/C (dose: 12.5 mg/kg/injection, schedule: Q01DX005 (ip), vehicle: saline with Tween-80): 101 % of control
- T/C (dose: 25.0 mg/kg/injection, schedule: Q01DX005 (ip), vehicle: saline with Tween-80): 101 % of control
- T/C [21]: 99 % of control and 88 % of control
- T/C [22]: 100 % of control

SMILES: CC1=CC(=O)C(Cc2ccccc2)(c2ccc(O)cc2O)N1 (configuration not stated)
- T/C [1]: 101 % of control
- T/C [2]: 97 % of control
- T/C [3]: 89 % of control

SMILES: COc1cc(-c2nnc(C3CCC(=O)N3Cc3ccccc3)o2)cc(OC)c1OC (configuration not stated)
- T/C [13]: 103 % of control
- T/C [14]: 100 % of control
- T/C [15]: 97 % of control

SMILES: O=C(O)c1ccc(S(=O)(=O)OCCCl)cc1
- T/C (dose: 6.25 mg/kg/injection, schedule: Q01DX009 (ip), vehicle: Klucel (hydroxypropylcellulose) (HPC)): 107 % of control
- T/C [16]: 100 % of control
- T/C [17]: 110 % of control

SMILES: COc1ccc2c(c1)N(S(=O)(=O)c1ccc(C)cc1)CC1=C2CCP1(C)=O (configuration not stated)
- T/C (dose: 100.0 mg/kg/injection, schedule: Q01DX001 (ip), vehicle: saline): 111 % of control
- T/C (dose: 200.0 mg/kg/injection, schedule: Q01DX001 (ip), vehicle: saline): 111 % of control
- T/C (dose: 400.0 mg/kg/injection, schedule: Q01DX001 (ip), vehicle: saline): 112 % of control

SMILES: C1=Nc2ccccc2Oc2ccc3ccccc3c21
- T/C [4]: 107 % of control
- T/C [5]: 99 % of control
- T/C [6]: 107 % of control

SMILES: C=C(C)c1nc(N)nc(Nc2ccccc2)n1
- T/C (dose: 50.0 mg/kg/injection, schedule: Q01DX005 (ip), vehicle: Klucel (hydroxypropylcellulose) (HPC)): 103 % of control
- T/C (dose: 100.0 mg/kg/injection, schedule: Q01DX005 (ip), vehicle: Klucel (hydroxypropylcellulose) (HPC)): 111 % of control
- T/C (dose: 200.0 mg/kg/injection, schedule: Q01DX005 (ip), vehicle: Klucel (hydroxypropylcellulose) (HPC)): 106 % of control

SMILES: COc1cc([N+](=O)[O-])cc2cc(C)c(=O)oc12
- T/C [4]: 99 % of control
- T/C [5]: 91 % of control
- T/C [6]: 91 % of control

SMILES: CCCNC(C)(C)C(SSSC(c1ccc(C(F)(F)F)cc1)C(C)(C)NCCC)c1ccc(C(F)(F)F)cc1 (configuration not stated)
- T/C [10]: 100 % of control
- T/C [11]: 104 % of control
- T/C [12]: 100 % of control
